{"source": "ChEMBL document CHEMBL1201862", "about": "“PubChem BioAssay data set” (2004)", "key": {"[1]": {"target": "Potassium voltage-gated channel subfamily KQT member 2 (Rattus norvegicus, UniProt O88943)", "sequence (O88943 whole entry)": "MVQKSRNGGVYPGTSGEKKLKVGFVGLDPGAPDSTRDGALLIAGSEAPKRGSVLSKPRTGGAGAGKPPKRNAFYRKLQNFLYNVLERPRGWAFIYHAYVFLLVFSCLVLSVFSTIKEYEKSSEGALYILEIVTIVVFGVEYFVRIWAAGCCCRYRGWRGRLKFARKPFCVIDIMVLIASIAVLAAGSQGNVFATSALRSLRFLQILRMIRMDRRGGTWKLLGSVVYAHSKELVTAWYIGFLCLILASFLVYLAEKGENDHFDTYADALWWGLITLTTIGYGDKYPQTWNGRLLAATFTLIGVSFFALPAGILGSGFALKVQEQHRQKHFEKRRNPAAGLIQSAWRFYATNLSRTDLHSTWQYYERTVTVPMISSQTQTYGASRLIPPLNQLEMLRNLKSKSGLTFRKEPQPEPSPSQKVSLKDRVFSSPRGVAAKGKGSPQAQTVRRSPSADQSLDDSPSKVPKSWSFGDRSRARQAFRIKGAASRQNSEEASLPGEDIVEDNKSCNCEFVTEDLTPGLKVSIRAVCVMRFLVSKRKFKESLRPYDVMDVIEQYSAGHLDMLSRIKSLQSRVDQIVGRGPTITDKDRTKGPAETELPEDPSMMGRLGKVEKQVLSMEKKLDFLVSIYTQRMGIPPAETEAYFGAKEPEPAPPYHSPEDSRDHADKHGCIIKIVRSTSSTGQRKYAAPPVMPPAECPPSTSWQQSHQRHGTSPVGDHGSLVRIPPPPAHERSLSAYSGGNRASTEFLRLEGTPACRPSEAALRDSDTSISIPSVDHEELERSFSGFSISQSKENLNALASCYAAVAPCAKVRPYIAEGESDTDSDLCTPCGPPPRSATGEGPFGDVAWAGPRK", "experiment": "potentiation of rat KCNQ2 current – cell-based, retigabine-insensitive compounds, dose response (AID 2654)", "assay_type": "functional"}, "[2]": {"experiment": "HPDE-C7 pancreatic duct cell viability loss – fluorescence, HTS (AID 430)", "assay_type": "functional, cell-based", "settings": "Homo sapiens"}, "[3]": {"experiment": "Trypanosoma cruzi growth suppression in host cells – NIH3T3 host cells, beta-gal luminescence, confirmation (AID 2044);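 further: intracellular parasites grown in NIH/3T3 mouse fibroblasts as host cells; luminescent beta-galactosidase reporter signal from transgenic T. cruzi replicating inside host cells; inhibitors lower the luminescence signal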", "assay_type": "functional, cell-based"}, "[4]": {"experiment": "viability loss of HPDE-C7K cells – cell-based, fluorescence, HTS, primary screen (AID 431)", "assay_type": "functional", "settings": "Homo sapiens"}, "[5]": {"experiment": "NIH3T3 cell viability loss – ATP luminescence, mouse fibroblasts, counter-screen, dose response (AID 2010);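 further: cells exposed to compound for about 90 hours before reading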", "assay_type": "functional, cell-based"}, "[6]": {"target": "T1, Mannose-6-phosphate isomerase (Homo sapiens, UniProt P34949)", "T1 sequence (P34949 whole entry)": "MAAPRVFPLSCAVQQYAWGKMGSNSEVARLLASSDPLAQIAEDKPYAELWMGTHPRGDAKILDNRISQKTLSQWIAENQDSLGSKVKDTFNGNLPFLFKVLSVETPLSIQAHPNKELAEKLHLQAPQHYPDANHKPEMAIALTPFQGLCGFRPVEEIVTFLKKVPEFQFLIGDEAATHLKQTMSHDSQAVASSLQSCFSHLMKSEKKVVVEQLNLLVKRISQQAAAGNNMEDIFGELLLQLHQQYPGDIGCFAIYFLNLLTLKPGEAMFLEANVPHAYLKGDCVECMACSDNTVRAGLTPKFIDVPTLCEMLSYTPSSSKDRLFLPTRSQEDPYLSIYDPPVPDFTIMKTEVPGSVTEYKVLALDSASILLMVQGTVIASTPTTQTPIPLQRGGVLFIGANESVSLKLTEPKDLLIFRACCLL", "experiment": "phosphomannose isomerase inhibition – biochemical, fluorescence intensity, confirmation (AID 1535)"}, "[7]": {"target": "Glucose-6-phosphate 1-dehydrogenase (Homo sapiens, UniProt P11413)", "sequence (P11413 whole entry)": "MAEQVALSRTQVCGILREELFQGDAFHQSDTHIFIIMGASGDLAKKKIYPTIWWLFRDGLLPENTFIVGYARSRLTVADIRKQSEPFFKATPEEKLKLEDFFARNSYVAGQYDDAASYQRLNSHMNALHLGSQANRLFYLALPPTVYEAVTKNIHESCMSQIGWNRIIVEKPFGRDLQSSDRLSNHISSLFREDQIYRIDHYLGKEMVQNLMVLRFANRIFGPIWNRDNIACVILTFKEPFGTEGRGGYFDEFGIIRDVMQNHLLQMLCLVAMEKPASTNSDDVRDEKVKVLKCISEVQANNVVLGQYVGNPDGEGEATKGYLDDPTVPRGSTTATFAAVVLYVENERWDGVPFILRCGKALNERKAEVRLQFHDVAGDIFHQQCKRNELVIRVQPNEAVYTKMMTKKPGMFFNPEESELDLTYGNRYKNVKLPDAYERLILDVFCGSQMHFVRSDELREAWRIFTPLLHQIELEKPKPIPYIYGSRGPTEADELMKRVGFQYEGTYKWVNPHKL", "experiment": "inhibition of Homo sapiens G6PD, dose series – biochemical, fluorescence, selectivity assay for P. falciparum G6PD inhibitor project, dose response (AID 504792)", "assay_type": "functional"}, "[8]": {"target": "Phosphomannomutase 2 (Homo sapiens, UniProt O15305)", "sequence (O15305 whole entry)": "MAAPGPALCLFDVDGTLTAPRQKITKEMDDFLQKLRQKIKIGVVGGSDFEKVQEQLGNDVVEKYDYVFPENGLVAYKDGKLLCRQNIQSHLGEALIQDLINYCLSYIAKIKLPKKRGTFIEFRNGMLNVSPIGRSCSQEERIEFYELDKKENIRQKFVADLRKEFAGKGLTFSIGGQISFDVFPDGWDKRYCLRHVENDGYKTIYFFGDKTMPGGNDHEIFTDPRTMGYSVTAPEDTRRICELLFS", "experiment": "Counter screen SAR assay for PMM2 inhibitors via a fluorescence intensity assay. [Related pubchem assays (depositor defined):AID1545, AID1574]"}, "[9]": {"target": "Phosphoethanolamine/phosphocholine phosphatase (Homo sapiens, UniProt Q8TCT1)", "sequence (Q8TCT1 whole entry)": "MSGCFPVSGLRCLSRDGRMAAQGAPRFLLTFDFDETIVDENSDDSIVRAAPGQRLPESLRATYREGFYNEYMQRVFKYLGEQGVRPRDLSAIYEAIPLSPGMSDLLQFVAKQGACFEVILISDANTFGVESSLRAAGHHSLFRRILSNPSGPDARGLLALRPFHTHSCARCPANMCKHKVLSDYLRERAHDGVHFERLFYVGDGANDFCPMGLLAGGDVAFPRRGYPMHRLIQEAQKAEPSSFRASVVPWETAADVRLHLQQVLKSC", "experiment": "SAR assay for compounds that inhibit PHOSPHO1. [Related pubchem assays (depositor defined):AID1545, AID1565, AID1574]"}, "[10]": {"target": "Protein Rev (Human immunodeficiency virus type 1 group M subtype B (isolate HXB2)(HIV-1), UniProt P04618)", "sequence (P04618 whole entry)": "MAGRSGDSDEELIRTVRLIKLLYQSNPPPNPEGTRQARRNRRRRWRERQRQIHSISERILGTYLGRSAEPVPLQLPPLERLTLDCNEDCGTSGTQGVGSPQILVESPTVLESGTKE", "experiment": "blockers of HIV Rev/RRE RNA complex – biochemical, fluorescence polarization, HIV-1, dose response (AID 434976)", "set-up": "species or system Human immunodeficiency virus 1"}, "[11]": {"target": "Female germline-specific tumor suppressor gld-1 (Caenorhabditis elegans, UniProt Q17339)", "sequence (Q17339 whole entry)": "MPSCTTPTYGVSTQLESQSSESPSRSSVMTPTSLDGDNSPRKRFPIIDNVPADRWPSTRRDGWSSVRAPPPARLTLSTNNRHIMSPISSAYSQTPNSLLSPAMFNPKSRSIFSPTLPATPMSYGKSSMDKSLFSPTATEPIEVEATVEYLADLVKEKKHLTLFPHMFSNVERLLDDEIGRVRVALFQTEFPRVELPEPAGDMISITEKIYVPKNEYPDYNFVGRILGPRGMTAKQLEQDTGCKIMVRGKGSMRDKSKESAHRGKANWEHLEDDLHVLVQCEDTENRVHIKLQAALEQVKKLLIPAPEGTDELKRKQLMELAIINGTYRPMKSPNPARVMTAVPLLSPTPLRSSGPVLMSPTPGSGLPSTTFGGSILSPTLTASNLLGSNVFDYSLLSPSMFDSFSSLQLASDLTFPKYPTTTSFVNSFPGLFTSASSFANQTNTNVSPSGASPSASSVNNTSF", "experiment": "blockers of GLD-1/TGE RNA complex formation – biochemical, fluorescence polarization, C. elegans, dose response (AID 2802)"}, "[12]": {"target": "T2, RNA-binding protein pos-1 (Caenorhabditis elegans, UniProt G5EF15)", "T2 sequence (G5EF15 whole entry)": "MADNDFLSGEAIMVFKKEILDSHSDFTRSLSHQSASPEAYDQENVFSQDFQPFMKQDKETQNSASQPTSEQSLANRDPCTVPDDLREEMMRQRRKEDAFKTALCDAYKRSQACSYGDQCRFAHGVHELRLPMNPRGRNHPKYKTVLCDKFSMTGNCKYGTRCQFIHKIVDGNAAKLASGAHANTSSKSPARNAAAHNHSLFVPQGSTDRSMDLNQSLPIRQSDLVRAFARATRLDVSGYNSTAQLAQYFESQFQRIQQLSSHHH", "experiment": "disruptors of C. elegans POS-1 RNA interaction – biochemical, fluorescence polarization, dose response (AID 1964);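 further: purified POS-1 fused to maltose binding protein made in E. coli; potency of compounds blocking POS-1 binding to fluorescent RNA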"}, "[13]": {"target": "T3, Zinc finger protein mex-5 (Caenorhabditis elegans, UniProt Q9XUB2)", "T3 sequence (Q9XUB2 whole entry)": "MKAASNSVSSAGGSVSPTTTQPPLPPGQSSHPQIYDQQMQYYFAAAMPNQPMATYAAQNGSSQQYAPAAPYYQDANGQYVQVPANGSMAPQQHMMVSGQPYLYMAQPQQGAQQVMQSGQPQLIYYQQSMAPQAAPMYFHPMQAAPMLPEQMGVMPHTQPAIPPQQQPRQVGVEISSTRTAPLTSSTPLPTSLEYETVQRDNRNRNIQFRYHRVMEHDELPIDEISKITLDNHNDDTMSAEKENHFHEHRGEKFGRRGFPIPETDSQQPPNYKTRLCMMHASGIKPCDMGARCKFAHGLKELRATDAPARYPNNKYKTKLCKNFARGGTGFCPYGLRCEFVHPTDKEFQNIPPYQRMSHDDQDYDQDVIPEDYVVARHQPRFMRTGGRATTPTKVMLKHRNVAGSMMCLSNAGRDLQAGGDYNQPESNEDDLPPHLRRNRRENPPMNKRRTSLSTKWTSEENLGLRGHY", "experiment": "potency of MEX-5 RNA-binding blockers – biochemical, C. elegans, fluorescence polarization, dose response (AID 1960)"}, "[14]": {"target": "T4, Heat shock factor protein 1 (Mus musculus, UniProt P38532)", "T4 sequence (P38532 whole entry)": "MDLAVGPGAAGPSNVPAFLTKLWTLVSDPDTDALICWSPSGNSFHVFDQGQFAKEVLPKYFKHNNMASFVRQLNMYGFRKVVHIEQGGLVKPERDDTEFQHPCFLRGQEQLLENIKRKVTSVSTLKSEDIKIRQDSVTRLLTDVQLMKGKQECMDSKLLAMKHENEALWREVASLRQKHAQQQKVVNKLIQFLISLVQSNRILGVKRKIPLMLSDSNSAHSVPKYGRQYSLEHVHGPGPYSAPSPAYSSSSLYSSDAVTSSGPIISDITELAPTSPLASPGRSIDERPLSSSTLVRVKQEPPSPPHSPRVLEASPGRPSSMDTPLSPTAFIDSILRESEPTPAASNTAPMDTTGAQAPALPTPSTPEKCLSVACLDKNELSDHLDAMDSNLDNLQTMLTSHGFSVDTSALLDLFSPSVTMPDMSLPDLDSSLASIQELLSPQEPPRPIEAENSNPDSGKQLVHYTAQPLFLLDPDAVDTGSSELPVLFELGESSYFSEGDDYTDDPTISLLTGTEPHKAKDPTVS", "experiment": "decrease of HSF1-responsive luciferase luminescence – cell-based, NIH3T3, dose retest, confirmation (AID 2382);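 further: NIH3T3 fibroblasts with HSF1-driven luciferase reporter stressed by proteasome inhibitor MG132; luminescence from HSF1-driven luciferase expression after 8 hours of MG132 stress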", "assay_type": "functional"}, "[15]": {"target": "Heat shock protein HSP 90-alpha (Homo sapiens, UniProt P07900)", "experiment": "Luminescence-based dose response biochemical high throughput screening assay for inhibitors of the Heat Shock Protein 90 (HSP90). [Related pubchem assays: 1831 (Summary AID.), 1846 (Confirmation screen.), 1789 (Primary screen.)]"}, "[16]": {"experiment": "HEK-293T cell viability reduction – luminescence, B-cell screen hits, cytotoxicity control for BCR NF-kB inhibitor project, dose response (AID 489021);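 further: HEK-293T cells carrying an NF-kB luciferase reporter; cells exposed to compound for about 14 hours before viability readout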", "assay_type": "functional, cell-based"}, "[17]": {"target": "T5, Protein phosphatase methylesterase 1 (Homo sapiens, UniProt Q9Y570)", "T5 sequence (Q9Y570 whole entry)": "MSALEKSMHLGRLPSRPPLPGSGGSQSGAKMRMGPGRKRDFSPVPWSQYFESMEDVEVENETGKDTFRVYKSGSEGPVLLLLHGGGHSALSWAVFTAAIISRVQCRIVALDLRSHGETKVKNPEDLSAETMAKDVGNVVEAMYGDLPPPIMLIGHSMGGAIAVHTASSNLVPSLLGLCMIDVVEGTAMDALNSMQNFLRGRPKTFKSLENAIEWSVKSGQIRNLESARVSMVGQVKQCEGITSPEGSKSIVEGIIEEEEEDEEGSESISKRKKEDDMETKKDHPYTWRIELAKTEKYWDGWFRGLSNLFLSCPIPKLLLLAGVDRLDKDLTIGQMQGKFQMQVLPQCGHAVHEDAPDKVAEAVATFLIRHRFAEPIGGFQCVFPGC", "experiment": "Late stage results from the probe development effort to identify inhibitors of the protein methylesterase PME-1: Gel-based Activity-Based Protein Profiling (ABPP) IC50: Purified enzyme.", "assay_type": "functional"}, "[18]": {"target": "T5, Protein phosphatase methylesterase 1", "experiment": "endogenous PME-1 and serine hydrolase inhibition – cell lysate, mouse brain cytosol, FP-rhodamine, gel ABPP, selectivity assay for PME-1 inhibitor project, dose response, panel member PME-1 Assay Panel member description: Inhibition of endogenously expressed PME-1 (AID 2366)"}}, "note": "The source made the active and inactive calls.", "data": [{"smiles": "CCOc1ccc(NC(=O)Nc2cccnc2)cc1", "values": [{"measurement": "EC50", "setting": "[1]", "value": "14.3 µM (active)"}]}, {"smiles": "O=c1c2ccccc2sn1-c1ccc(S(=O)(=O)N2CCCC2)cc1", "values": [{"measurement": "EC50", "setting": "[2]", "value": "> 20 µM (not active)"}, {"measurement": "EC50", "setting": "[3]", "value": "1.29 µM (active)"}, {"measurement": "EC50", "setting": "[4]", "value": "> 20 µM (not active)"}, {"measurement": "EC50", "setting": "[5]", "value": "> 30 µM (not active)"}, {"measurement": "IC50", "setting": "[6]", "value": "> 50 µM (inactive)"}, {"measurement": "IC50", "setting": "[7]", "value": "30.7 µM (inactive)"}, {"measurement": "IC50", "setting": "[8]", "value": "> 100 µM (inactive)"}, {"measurement": "IC50", "setting": "[9]", "value": "0.489 µM (active)"}]}, {"smiles": "CCCCN(C(=O)c1ccc([N+](=O)[O-])o1)c1c(N)n(CC(C)C)c(=O)[nH]c1=O", "values": [{"measurement": "IC50", "setting": "[10]", "value": "7.26 µM (active)"}, {"measurement": "IC50", "setting": "[11]", "value": "2.74 µM (active)"}, {"measurement": "EC50", "setting": "[12]", "value": "18.7 µM (active)"}, {"measurement": "EC50", "setting": "[13]", "value": "16 µM (active)"}]}, {"smiles": "Cc1ccc(/C=C2\\SC(=S)N(CCCC(=O)Nc3ccccn3)C2=O)cc1", "values": [{"measurement": "EC50", "setting": "[14]", "value": "1.51 µM (active)"}, {"measurement": "IC50", "setting": "[15]", "value": "17.8 µM (not active)"}, {"measurement": "IC50", "setting": "[16]", "value": "> 80 µM (inactive)"}]}, {"smiles": "CS(=O)(=O)/C(C#N)=C/c1ccccc1", "values": [{"measurement": "IC50", "setting": "[17]", "value": "> 20 µM (not active)"}, {"measurement": "IC50", "setting": "[18]", "value": "> 20 µM (inactive)"}]}]}
